We go through 14 compounds from US11173151B2, “Substituted triazole derivatives and uses thereof” (BAYER AKTIENGESELLSCHAFT, priority 2017, dated 2021).

One assay has as its target T1, human V2 receptor (Homo sapiens, UniProt P30518).
T1 construct: expressed in transfected cells; host or cells: CHO K1 (ATCC) expressing firefly luciferase under a CRE-responsive promoter
The experiment in a line: Cellular in vitro assay for determining vasopressin receptor activity, V2 receptor cell line (CHO, CRE-luciferase). The following applies: CHO cell line transfected with human V2 receptor; [Arg8]-vasopressin at EC50 concentration, 3 hours; read-out: IC50 hV2. The assay is classed as cell-based.

The target in another assay is T2, human V1a receptor (Homo sapiens, UniProt P37288).
T2 construct: expressed in transfected cells; host or cells: CHO K1 (ATCC), also stably transfected with a modified aequorin
T2 sequence (P37288 whole entry): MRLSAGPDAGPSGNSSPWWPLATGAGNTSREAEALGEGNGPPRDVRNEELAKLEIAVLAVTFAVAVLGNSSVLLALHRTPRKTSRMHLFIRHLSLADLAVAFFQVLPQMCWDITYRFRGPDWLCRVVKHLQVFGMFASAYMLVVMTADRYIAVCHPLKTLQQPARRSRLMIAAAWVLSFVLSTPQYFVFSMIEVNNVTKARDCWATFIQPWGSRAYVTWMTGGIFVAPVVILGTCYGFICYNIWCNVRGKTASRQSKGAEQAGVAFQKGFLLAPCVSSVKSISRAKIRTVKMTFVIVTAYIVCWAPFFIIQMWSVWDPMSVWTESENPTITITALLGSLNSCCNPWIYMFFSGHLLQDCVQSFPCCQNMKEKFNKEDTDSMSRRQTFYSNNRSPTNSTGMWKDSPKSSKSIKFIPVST
Kind of assay: Cellular in vitro assay for determining vasopressin receptor activity, V1a receptor cell line (CHO, aequorin luminescence). The assay is classed as cell-based. To be noted: for pIC50: CHO cell line transfected with human V1a receptor, [Arg]-vasopressin at EC50 concentration, read-out: IC50 hV1a; for ratio IC50 hV2/hV1a: selectivity ratio IC50 hV2 / IC50 hV1a. Put shortly:
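Luminescence from reconstituted aequorin, reporting intracellular calcium release, was measured immediately after adding [Arg]-vasopressin at EC50 concentration to CHO K1 cells pretreated 10 minutes with graded compound concentrations. Inhibition gave IC50 values.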

pIC50: −log10 of the molar value.

T1 sequence (P30518 whole entry): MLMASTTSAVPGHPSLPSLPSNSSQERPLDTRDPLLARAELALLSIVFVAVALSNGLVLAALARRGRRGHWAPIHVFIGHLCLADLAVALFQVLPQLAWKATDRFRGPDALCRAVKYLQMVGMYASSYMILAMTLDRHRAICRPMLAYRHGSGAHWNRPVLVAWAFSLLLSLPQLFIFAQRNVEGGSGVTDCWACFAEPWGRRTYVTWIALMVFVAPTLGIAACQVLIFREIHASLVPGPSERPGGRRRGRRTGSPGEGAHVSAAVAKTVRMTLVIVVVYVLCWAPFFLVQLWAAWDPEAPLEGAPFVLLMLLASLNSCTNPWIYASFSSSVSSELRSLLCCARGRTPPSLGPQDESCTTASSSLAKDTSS

One may read the pIC50 as −log10 of the IC50, conventionally taken in molar units. Consider `Cc1n[nH]c(C)c1NC(=O)c1ccccc1-n1cnc(Cn2nc(-c3ccc(Cl)cc3)n(C[C@H](O)C(F)(F)F)c2=O)n1` [Example 214, 2-[3-({3-(4-Chlorophenyl)-5-oxo-4-[(2S)-3,3,3-trifluoro-2-hydroxypropyl]-4,5-dihydro-1H-1,2,4-triazol-1-yl}methyl)-1H-1,2,4-triazol-1-yl]-N-(3,5-dimethyl-1H-pyrazol-4-yl)benzamide], for which the pIC50 at human V2 receptor is 5.85. Moreover, on human V1a receptor, the negative-log IC50 (pIC50) is 8.78 and the “ratio IC50 hV2/hV1a” value worked out at 854.5.

For the compound `CCn1nccc1NC(=O)c1ccccc1-n1cnc(Cn2nc(-c3ccc(Cl)cc3)n(C[C@H](O)C(F)(F)F)c2=O)n1` [Example 215, 2-[3-({3-(4-Chlorophenyl)-5-oxo-4-[(2S)-3,3,3-trifluoro-2-hydroxypropyl]-4,5-dihydro-1H-1,2,4-triazol-1-yl}methyl)-1H-1,2,4-triazol-1-yl]-N-(1-ethyl-1H-pyrazol-5-yl)benzamide], the negative logarithm of the IC50 (pIC50) at human V2 receptor was 5.92; at human V1a receptor, 7.93. Also, at human V1a receptor, the “ratio IC50 hV2/hV1a” value is reported as 102.1.

Take `CC(NC(=O)c1ccccc1-n1cnc(Cn2nc(-c3ccc(Cl)cc3)n(C[C@H](O)C(F)(F)F)c2=O)n1)c1ccon1` (stereo partly drawn) [Example 216, 2-[3-({3-(4-Chlorophenyl)-5-oxo-4-[(2S)-3,3,3-trifluoro-2-hydroxypropyl]-4,5-dihydro-1H-1,2,4-triazol-1-yl}methyl)-1H-1,2,4-triazol-1-yl]-N-[1-(1,2-oxazol-3-yl)ethyl]benzamide]: the pIC50 on human V2 receptor was 6.77. On human V1a receptor, the pIC50 is 7.92 and the “ratio IC50 hV2/hV1a” value is 14.2.

For `O=C(Nc1ccc(F)cc1O)c1ccccc1-n1cnc(Cn2nc(-c3ccc(Cl)cc3)n(C[C@H](O)C(F)(F)F)c2=O)n1` [Example 217, 2-[3-({3-(4-Chlorophenyl)-5-oxo-4-[(2S)-3,3,3-trifluoro-2-hydroxypropyl]-4,5-dihydro-1H-1,2,4-triazol-1-yl}methyl)-1H-1,2,4-triazol-1-yl]-N-(4-fluoro-2-hydroxyphenyl)benzamide], the negative-log IC50 (pIC50) on human V2 receptor was 7.03. For the same compound, at human V1a receptor, the negative logarithm of the IC50 (pIC50) is 8.40 and the “ratio IC50 hV2/hV1a” value is 23.7.

As to `O=C(Nc1n[nH]cc1Cl)c1ccccc1-n1cnc(Cn2nc(-c3ccc(Cl)cc3)n(C[C@H](O)C(F)(F)F)c2=O)n1` [Example 218, 2-[3-({3-(4-Chlorophenyl)-5-oxo-4-[(2S)-3,3,3-trifluoro-2-hydroxypropyl]-4,5-dihydro-1H-1,2,4-triazol-1-yl}methyl)-1H-1,2,4-triazol-1-yl]-N-(4-chloro-1H-pyrazol-3-yl)benzamide], the negative-log IC50 (pIC50) on human V2 receptor is 8.11. Moreover, at human V1a receptor, the pIC50 was 9.49 and the “ratio IC50 hV2/hV1a” value amounted to 24.4.

For `O=C(Nc1cccc[n+]1[O-])c1ccccc1-n1cnc(Cn2nc(-c3ccc(Cl)cc3)n(C[C@H](O)C(F)(F)F)c2=O)n1` [Example 219, 2-[3-({3-(4-Chlorophenyl)-5-oxo-4-[(2S)-3,3,3-trifluoro-2-hydroxypropyl]-4,5-dihydro-1H-1,2,4-triazol-1-yl}methyl)-1H-1,2,4-triazol-1-yl]-N-(1-oxidopyridin-2-yl)benzamide], the results for the pIC50 at human V2 receptor and on human V1a receptor were 7.38 and 7.68, respectively. Further, the “ratio IC50 hV2/hV1a” value on human V1a receptor was found to be 2.0.

In the case of `Cc1cncc(NC(=O)c2ccccc2-n2cnc(Cn3nc(-c4ccc(Cl)cc4)n(C[C@H](O)C(F)(F)F)c3=O)n2)c1` [Example 220, 2-[3-({3-(4-Chlorophenyl)-5-oxo-4-[(2S)-3,3,3-trifluoro-2-hydroxypropyl]-4,5-dihydro-1H-1,2,4-triazol-1-yl}methyl)-1H-1,2,4-triazol-1-yl]-N-(5-methylpyridin-3-yl)benzamide], the negative-log IC50 (pIC50) on human V2 receptor is 6.67. Besides, on human V1a receptor, the pIC50 was 8.44 and the “ratio IC50 hV2/hV1a” value amounted to 58.9.

Regarding `Cc1ncccc1NC(=O)c1ccccc1-n1cnc(Cn2nc(-c3ccc(Cl)cc3)n(C[C@H](O)C(F)(F)F)c2=O)n1` [Example 221, 2-[3-({3-(4-Chlorophenyl)-5-oxo-4-[(2S)-3,3,3-trifluoro-2-hydroxypropyl]-4,5-dihydro-1H-1,2,4-triazol-1-yl}methyl)-1H-1,2,4-triazol-1-yl]-N-(2-methylpyridin-3-yl)benzamide], the negative logarithm of the IC50 (pIC50) at human V2 receptor was 6.34; on human V1a receptor, 8.31. Besides, the “ratio IC50 hV2/hV1a” value at human V1a receptor worked out at 92.9.

Regarding `CC1CCC(C)C1NC(=O)c1ccccc1-n1cnc(Cn2nc(-c3ccc(Cl)cc3)n(C[C@H](O)C(F)(F)F)c2=O)n1` (stereo partly drawn) [Example 222, 2-[3-({3-(4-Chlorophenyl)-5-oxo-4-[(2S)-3,3,3-trifluoro-2-hydroxypropyl]-4,5-dihydro-1H-1,2,4-triazol-1-yl}methyl)-1H-1,2,4-triazol-1-yl]-N-(2,5-dimethylcyclopentyl)benzamide], the pIC50 on human V2 receptor is 6.73. For the same compound, at human V1a receptor, the negative-log IC50 (pIC50) is 8.31 and the “ratio IC50 hV2/hV1a” value was determined as 38.1.

On to `O=C(Nc1nccs1)c1ccccc1-n1cnc(Cn2nc(-c3ccc(Cl)cc3)n(C[C@H](O)C(F)(F)F)c2=O)n1` [Example 223, 2-[3-({3-(4-Chlorophenyl)-5-oxo-4-[(2S)-3,3,3-trifluoro-2-hydroxypropyl]-4,5-dihydro-1H-1,2,4-triazol-1-yl}methyl)-1H-1,2,4-triazol-1-yl]-N-(1,3-thiazol-2-yl)benzamide], for which the negative logarithm of the IC50 (pIC50) on human V2 receptor was 8.94. On human V1a receptor, the negative logarithm of the IC50 (pIC50) was 8.82 and the “ratio IC50 hV2/hV1a” value is given as 0.8.

With `NC(=O)CNC(=O)c1ccccc1-n1cnc(Cn2nc(-c3ccc(Cl)cc3)n(C[C@H](O)C(F)(F)F)c2=O)n1` [Example 225, N-(2-Amino-2-oxoethyl)-2-[3-({3-(4-chlorophenyl)-5-oxo-4-[(2S)-3,3,3-trifluoro-2-hydroxypropyl]-4,5-dihydro-1H-1,2,4-triazol-1-yl}methyl)-1H-1,2,4-triazol-1-yl]benzamide], the negative-log IC50 (pIC50) was 6.68 on human V2 receptor and 8.26 at human V1a receptor. The “ratio IC50 hV2/hV1a” value on human V1a receptor is 38.2.

As to `O=C(Nc1ccc(Cl)nc1)c1ccccc1-n1cnc(Cn2nc(-c3ccc(Cl)cc3)n(C[C@H](O)C(F)(F)F)c2=O)n1` [Example 226, 2-[3-({3-(4-Chlorophenyl)-5-oxo-4-[(2S)-3,3,3-trifluoro-2-hydroxypropyl]-4,5-dihydro-1H-1,2,4-triazol-1-yl}methyl)-1H-1,2,4-triazol-1-yl]-N-(6-chloropyridin-3-yl)benzamide], on human V2 receptor, the negative logarithm of the IC50 (pIC50) was 8.13. Further, at human V1a receptor, the pIC50 is 8.89 and the “ratio IC50 hV2/hV1a” value is 5.7.

Take `O=C(Nc1cccc(O)c1)c1ccccc1-n1cnc(Cn2nc(-c3ccc(Cl)cc3)n(C[C@H](O)C(F)(F)F)c2=O)n1` [Example 227, 2-[3-({3-(4-Chlorophenyl)-5-oxo-4-[(2S)-3,3,3-trifluoro-2-hydroxypropyl]-4,5-dihydro-1H-1,2,4-triazol-1-yl}methyl)-1H-1,2,4-triazol-1-yl]-N-(3-hydroxyphenyl)benzamide]: the negative-log IC50 (pIC50) at human V2 receptor is 7.17. Also, on human V1a receptor, the pIC50 is 8.92 and the “ratio IC50 hV2/hV1a” value turned out to be 55.8.

`Cc1cc(NC(=O)c2ccccc2-n2cnc(Cn3nc(-c4ccc(Cl)cc4)n(C[C@H](O)C(F)(F)F)c3=O)n2)ccc1F` [Example 228, 2-[3-({3-(4-Chlorophenyl)-5-oxo-4-[(2S)-3,3,3-trifluoro-2-hydroxypropyl]-4,5-dihydro-1H-1,2,4-triazol-1-yl}methyl)-1H-1,2,4-triazol-1-yl]-N-(4-fluoro-3-methylphenyl)benzamide]: the results for the pIC50 at human V2 receptor and at human V1a receptor were 6.82 and 8.25, respectively. Moreover, the “ratio IC50 hV2/hV1a” value at human V1a receptor is on record as 26.5.
